In the NIST ThermoML archive (doi:10.1016/j.tca.2015.06.017):

Assay: xn = mol fraction of the nth substance listed
Settings: Liquid, Vibrating tube method

CC(C)(C)Cl [2-chloro-2-methylpropane] + CCCCCCC
mass density [kg/m3]
Settings | 293.15 K | 298.15 K
100 kPa, x2 = 0.0554 | – | 824.75
100 kPa, x2 = 0.1017 | – | 814.99
100 kPa, x2 = 0.2004 | – | 795.33
100 kPa, x2 = 0.3016 | – | 776.67
100 kPa, x2 = 0.4097 | – | 758.26
100 kPa, x2 = 0.498 | – | 744.32
100 kPa, x2 = 0.5983 | – | 729.58
100 kPa, x2 = 0.7017 | – | 715.49
100 kPa, x2 = 0.7995 | – | 703.09
100 kPa, x2 = 0.9032 | – | 690.79
100 kPa, x2 = 0.9482 | – | 685.68
2000 kPa, x2 = 0.0554 | – | 827.29
2000 kPa, x2 = 0.1017 | – | 817.46
2000 kPa, x2 = 0.2004 | – | 797.78
2000 kPa, x2 = 0.3016 | – | 778.97
2000 kPa, x2 = 0.4097 | – | 760.5
2000 kPa, x2 = 0.498 | – | 746.66
2000 kPa, x2 = 0.5983 | – | 731.77
2000 kPa, x2 = 0.7017 | – | 717.66
2000 kPa, x2 = 0.7995 | – | 705.19
2000 kPa, x2 = 0.9032 | – | 692.86
2000 kPa, x2 = 0.9482 | – | 687.76
5000 kPa, x2 = 0.0554 | – | 831.22
5000 kPa, x2 = 0.1017 | – | 821.35
5000 kPa, x2 = 0.2004 | – | 801.38
5000 kPa, x2 = 0.3016 | – | 782.63
5000 kPa, x2 = 0.4097 | – | 763.93
5000 kPa, x2 = 0.498 | – | 749.94
5000 kPa, x2 = 0.5983 | – | 734.95
5000 kPa, x2 = 0.7017 | – | 720.69
5000 kPa, x2 = 0.7995 | – | 708.17
5000 kPa, x2 = 0.9032 | – | 695.72
5000 kPa, x2 = 0.9482 | – | 690.58
7000 kPa, x2 = 0.0554 | – | 833.69
7000 kPa, x2 = 0.1017 | – | 823.79
7000 kPa, x2 = 0.2004 | – | 803.89
7000 kPa, x2 = 0.3016 | – | 784.93
7000 kPa, x2 = 0.4097 | – | 766.14
7000 kPa, x2 = 0.498 | – | 752.1
7000 kPa, x2 = 0.5983 | – | 737.06
7000 kPa, x2 = 0.7017 | – | 722.75
7000 kPa, x2 = 0.7995 | – | 710.2
7000 kPa, x2 = 0.9032 | – | 697.64
7000 kPa, x2 = 0.9482 | – | 692.49
10000 kPa, x2 = 0.0554 | – | 837.41
10000 kPa, x2 = 0.1017 | – | 827.3
10000 kPa, x2 = 0.2004 | – | 807.34
10000 kPa, x2 = 0.3016 | – | 788.26
10000 kPa, x2 = 0.4097 | – | 769.41
10000 kPa, x2 = 0.498 | – | 755.22
10000 kPa, x2 = 0.5983 | – | 740.1
10000 kPa, x2 = 0.7017 | – | 725.72
10000 kPa, x2 = 0.7995 | – | 712.96
10000 kPa, x2 = 0.9032 | – | 700.3
10000 kPa, x2 = 0.9482 | – | 695.09
20000 kPa, x2 = 0.0554 | – | 848.71
20000 kPa, x2 = 0.1017 | – | 838.45
20000 kPa, x2 = 0.2004 | – | 818.1
20000 kPa, x2 = 0.3016 | – | 798.58
20000 kPa, x2 = 0.4097 | – | 779.66
20000 kPa, x2 = 0.498 | 769.27 | 765.11
20000 kPa, x2 = 0.5983 | 753.74 | 749.57
20000 kPa, x2 = 0.7017 | 738.84 | 734.93
20000 kPa, x2 = 0.7995 | 725.88 | 721.79
20000 kPa, x2 = 0.9032 | 712.92 | 708.9
20000 kPa, x2 = 0.9482 | 707.57 | 703.58
30000 kPa, x2 = 0.0554 | 863.54 | 858.8
30000 kPa, x2 = 0.1017 | 853.13 | 848.35
30000 kPa, x2 = 0.2004 | 832.13 | 827.76
30000 kPa, x2 = 0.3016 | 812.29 | 807.95
30000 kPa, x2 = 0.4097 | 792.63 | 788.48
30000 kPa, x2 = 0.498 | 777.78 | 773.73
30000 kPa, x2 = 0.5983 | 762.02 | 758.07
30000 kPa, x2 = 0.7017 | 746.9 | 743.08
30000 kPa, x2 = 0.7995 | 733.66 | 729.79
30000 kPa, x2 = 0.9032 | 720.51 | 716.58
30000 kPa, x2 = 0.9482 | 715.09 | 711.27
40000 kPa, x2 = 0.0554 | 872.42 | 867.89
40000 kPa, x2 = 0.1017 | 862.05 | 857.39
40000 kPa, x2 = 0.2004 | 840.65 | 836.44
40000 kPa, x2 = 0.3016 | 820.63 | 816.41
40000 kPa, x2 = 0.4097 | 800.54 | 796.66
40000 kPa, x2 = 0.498 | 785.54 | 781.69
40000 kPa, x2 = 0.5983 | 769.5 | 765.72
40000 kPa, x2 = 0.7017 | 754.19 | 750.52
40000 kPa, x2 = 0.7995 | 740.77 | 737.07
40000 kPa, x2 = 0.9032 | 727.37 | 723.74
40000 kPa, x2 = 0.9482 | 721.88 | 718.29
50000 kPa, x2 = 0.0554 | 880.62 | 876.38
50000 kPa, x2 = 0.1017 | 870 | 865.68
50000 kPa, x2 = 0.2004 | 848.46 | 844.44
50000 kPa, x2 = 0.3016 | 828.17 | 824.32
50000 kPa, x2 = 0.4097 | 807.96 | 804.27
50000 kPa, x2 = 0.498 | 792.71 | 789.1
50000 kPa, x2 = 0.5983 | 776.5 | 772.96
50000 kPa, x2 = 0.7017 | 761.01 | 757.53
50000 kPa, x2 = 0.7995 | 747.33 | 743.9
50000 kPa, x2 = 0.9032 | 733.84 | 730.37
50000 kPa, x2 = 0.9482 | 728.3 | 724.81
60000 kPa, x2 = 0.0554 | 888.24 | 884.1
60000 kPa, x2 = 0.1017 | 877.59 | 873.27
60000 kPa, x2 = 0.2004 | 855.9 | 852
60000 kPa, x2 = 0.3016 | 835.3 | 831.63
60000 kPa, x2 = 0.4097 | 814.87 | 811.3
60000 kPa, x2 = 0.498 | 799.57 | 796.01
60000 kPa, x2 = 0.5983 | 783.15 | 779.73
60000 kPa, x2 = 0.7017 | 767.47 | 764.12
60000 kPa, x2 = 0.7995 | 753.62 | 750.3
60000 kPa, x2 = 0.9032 | 739.97 | 736.68
60000 kPa, x2 = 0.9482 | 734.33 | 731.11
65000 kPa, x2 = 0.0554 | 891.92 | 887.83
65000 kPa, x2 = 0.1017 | 881.11 | 877.03
65000 kPa, x2 = 0.2004 | 859.41 | 855.63
65000 kPa, x2 = 0.3016 | 838.73 | 834.93
65000 kPa, x2 = 0.4097 | 818.27 | 814.66
65000 kPa, x2 = 0.498 | 802.79 | 799.35
65000 kPa, x2 = 0.5983 | 786.25 | 782.96
65000 kPa, x2 = 0.7017 | 770.47 | 767.16
65000 kPa, x2 = 0.7995 | 756.52 | 753.28
65000 kPa, x2 = 0.9032 | 742.75 | 739.66
65000 kPa, x2 = 0.9482 | 737.09 | 734.01
